Experimental data reported in patent publication US20240083897A1, “GCN2 MODULATING COMPOUNDS AND USES THEREOF” (HiberCell, Inc., priority 2021, published 2024).

Biological target: GCN2 (Homo sapiens (Human), UniProt Q9P2K8)
Test: TR-FRET biochemical assay for inhibition of GCN2
Settings: not given

Sequence of GCN2 (Q9P2K8 whole entry): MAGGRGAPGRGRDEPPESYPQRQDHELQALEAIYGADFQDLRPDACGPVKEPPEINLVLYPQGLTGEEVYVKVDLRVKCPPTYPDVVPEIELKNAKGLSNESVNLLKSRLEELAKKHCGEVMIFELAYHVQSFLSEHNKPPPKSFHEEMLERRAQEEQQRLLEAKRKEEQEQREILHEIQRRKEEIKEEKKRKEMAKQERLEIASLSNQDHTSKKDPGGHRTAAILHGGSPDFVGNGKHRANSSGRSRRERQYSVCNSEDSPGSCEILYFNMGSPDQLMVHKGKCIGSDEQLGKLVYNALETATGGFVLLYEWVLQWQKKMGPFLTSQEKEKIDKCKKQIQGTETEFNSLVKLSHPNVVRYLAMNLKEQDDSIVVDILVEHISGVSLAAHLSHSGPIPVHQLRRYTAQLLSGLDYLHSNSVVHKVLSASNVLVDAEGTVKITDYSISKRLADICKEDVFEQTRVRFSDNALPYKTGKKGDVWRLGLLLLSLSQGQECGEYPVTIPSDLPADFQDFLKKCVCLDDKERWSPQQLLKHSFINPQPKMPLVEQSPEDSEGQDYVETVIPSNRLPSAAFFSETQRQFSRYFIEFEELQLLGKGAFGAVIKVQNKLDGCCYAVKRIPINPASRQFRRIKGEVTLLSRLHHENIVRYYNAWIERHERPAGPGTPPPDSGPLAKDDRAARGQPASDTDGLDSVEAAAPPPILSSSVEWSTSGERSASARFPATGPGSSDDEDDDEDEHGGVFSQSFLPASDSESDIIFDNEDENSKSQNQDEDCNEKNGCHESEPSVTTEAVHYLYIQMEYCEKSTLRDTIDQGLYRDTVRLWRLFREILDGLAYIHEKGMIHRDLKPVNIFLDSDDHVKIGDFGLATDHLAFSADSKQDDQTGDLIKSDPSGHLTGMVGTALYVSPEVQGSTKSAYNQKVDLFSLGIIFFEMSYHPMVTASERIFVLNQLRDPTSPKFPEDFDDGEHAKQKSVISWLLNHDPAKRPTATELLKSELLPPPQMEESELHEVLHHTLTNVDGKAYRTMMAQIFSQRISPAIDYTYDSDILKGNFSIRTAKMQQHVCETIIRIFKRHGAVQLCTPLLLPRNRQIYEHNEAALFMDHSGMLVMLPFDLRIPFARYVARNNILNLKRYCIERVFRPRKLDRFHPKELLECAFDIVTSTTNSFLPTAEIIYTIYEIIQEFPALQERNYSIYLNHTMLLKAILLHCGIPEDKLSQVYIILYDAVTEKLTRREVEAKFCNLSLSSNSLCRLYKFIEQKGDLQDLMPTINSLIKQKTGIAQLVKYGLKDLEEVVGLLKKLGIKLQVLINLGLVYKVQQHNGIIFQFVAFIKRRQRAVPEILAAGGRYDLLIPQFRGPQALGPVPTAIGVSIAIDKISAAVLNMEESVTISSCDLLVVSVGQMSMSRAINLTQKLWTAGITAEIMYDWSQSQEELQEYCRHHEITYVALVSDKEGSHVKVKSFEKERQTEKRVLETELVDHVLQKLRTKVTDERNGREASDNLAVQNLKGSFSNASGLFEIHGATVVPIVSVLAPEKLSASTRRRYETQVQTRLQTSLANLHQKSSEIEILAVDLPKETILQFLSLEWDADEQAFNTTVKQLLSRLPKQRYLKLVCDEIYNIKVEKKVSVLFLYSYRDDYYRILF

SMILES | IC50
CNC(=O)c1ncn2c1CC[C@H](c1c(F)ccc(NS(=O)(=O)c3cc(C#N)cnc3OC)c1F)C2 [Compound 68-1, (R)-6-(3-((5-cyano-2-methoxypyridine)-3-sulfonamido)-2,6-difluorophenyl)-N-methyl-5,6,7,8-tetrahydroimidazo[1,5-a]pyridine-1-carboxamide] | 50 to 500 nM
CNC(=O)c1ncn2c1CC[C@@H](c1c(F)ccc(NS(=O)(=O)c3cc(C#N)cnc3OC)c1F)C2 [Compound 68-2, (S)-6-(3-((5-cyano-2-methoxypyridine)-3-sulfonamido)-2,6-difluorophenyl)-N-methyl-5,6,7,8-tetrahydroimidazo[1,5-a]pyridine-1-carboxamide] | 50 to 500 nM
COc1ncc(Cl)cc1S(=O)(=O)Nc1ccc(F)c([C@@H]2Cn3cnc(-c4ncc[nH]4)c3CN2C)c1F [Compound 73-1, 5-chloro-N-[2,4-difluoro-3-[(6R)-1-(1H-imidazol-2-yl)-7-methyl-5H,6H,8H-imidazo[1,5-a]pyrazin-6-yl]phenyl]-2-methoxypyridine-3-sulfonamide] | 50 to 500 nM
COc1ncc(Cl)cc1S(=O)(=O)Nc1ccc(F)c([C@H]2Cn3cnc(-c4ncc[nH]4)c3CN2C)c1F [Compound 73-2, 5-chloro-N-[2,4-difluoro-3-[(6S)-1-(1H-imidazol-2-yl)-7-methyl-5H,6H,8H-imidazo[1,5-a]pyrazin-6-yl]phenyl]-2-methoxypyridine-3-sulfonamide] | 50 to 500 nM
COc1ncc(C#N)cc1S(=O)(=O)Nc1ccc(F)c([C@H]2CCc3c(-c4ncc[nH]4)ncn3C2)c1F [Compound 82-1, 5-cyano-N-[2,4-difluoro-3-[(6R)-1-(1H-imidazol-2-yl)-5H,6H,7H,8H-imidazo[1,5-a]pyridin-6-yl]phenyl]-2-methoxypyridine-3-sulfonamide] | 50 to 500 nM
COc1ncc(C#N)cc1S(=O)(=O)Nc1ccc(F)c([C@@H]2CCc3c(-c4ncc[nH]4)ncn3C2)c1F [Compound 82-2, 5-cyano-N-[2,4-difluoro-3-[(6S)-1-(1H-imidazol-2-yl)-5H,6H,7H,8H-imidazo[1,5-a]pyridin-6-yl]phenyl]-2-methoxypyridine-3-sulfonamide] | 50 to 500 nM
CNC(=O)c1ncn2cc(-c3c(F)ccc(NS(=O)(=O)c4cc(F)cnc4OC)c3F)ncc12 [Compound 90, 6-[2,6-difluoro-3-(5-fluoro-2-methoxypyridine-3-sulfonamido)phenyl]-N-methylimidazo[1,5-a]pyrazine-1-carboxamide] | 50 to 500 nM
CNC(=O)c1ncn2cc(-c3c(F)ccc(NS(=O)(=O)c4cc(F)cnc4C)c3F)ncc12 [Compound 91, 6-[2,6-difluoro-3-(5-fluoro-2-methylpyridine-3-sulfonamido)phenyl]-N-methylimidazo[1,5-a]pyrazine-1-carboxamide] | 50 to 500 nM

Same assay, conditions: GCN2 2 nM, 100 nM GFP-eIF2a, 150 μM ATP, TR-FRET

SMILES | IC50
COc1ncc(Cl)cc1S(=O)(=O)Nc1ccc(F)c([C@H]2CCn3c(cnc3-c3ncc[nH]3)C2)c1F [Compound 64-2, (S)—N-(3-(3-(1H-imidazol-2-yl)-5,6,7,8-tetrahydroimidazo[1,5-a]pyridin-7-yl)-2,4-difluorophenyl)-5-chloro-2-methoxypyridine-3-sulfonamide] | < 50 nM
Cc1ncc(Cl)cc1S(=O)(=O)Nc1ccc(F)c(-c2ccc3c(-c4nnc[nH]4)ncn3c2)c1F [Compound 65, 5-chloro-N-[2,4-difluoro-3-[1-(4H-1,2,4-triazol-3-yl)imidazo[1,5-a]pyridin-6-yl]phenyl]-2-methylpyridine-3-sulfonamide] | < 50 nM
COc1ncc(C#N)cc1S(=O)(=O)Nc1ccc(F)c(-c2ccc3c(-c4nc5ccccc5[nH]4)ncn3c2)c1F [Compound 66, N-[3-[1-(1H-1,3-benzodiazol-2-yl)imidazo[1,5-a]pyridin-6-yl]-2,4-difluorophenyl]-5-cyano-2-methoxypyridine-3-sulfonamide] | < 50 nM
COc1ncc(C#N)cc1S(=O)(=O)Nc1ccc(F)c(-c2cn3cnc(-c4ncc[nH]4)c3cn2)c1F [Compound 69, 5-cyano-N-[2,4-difluoro-3-[1-(1H-imidazol-2-yl)imidazo[1,5-a]pyrazin-6-yl]phenyl]-2-methoxypyridine-3-sulfonamide] | < 50 nM
COc1ncc(F)cc1S(=O)(=O)Nc1ccc(F)c(-c2ccc3c(-c4nnc[nH]4)ncn3c2)c1F [Compound 70, N-[2,4-difluoro-3-[1-(4H-1,2,4-triazol-3-yl)imidazo[1,5-a]pyridin-6-yl]phenyl]-5-fluoro-2-methoxypyridine-3-sulfonamide] | < 50 nM
COc1ncc(C#N)cc1S(=O)(=O)Nc1ccc(F)c(-c2ccc3c(-c4nnc[nH]4)ncn3c2)c1F [Compound 71, 5-cyano-N-[2,4-difluoro-3-[1-(4H-1,2,4-triazol-3-yl)imidazo[1,5-a]pyridin-6-yl]phenyl]-2-methoxypyridine-3-sulfonamide] | < 50 nM
Cc1ncc(F)cc1S(=O)(=O)Nc1ccc(F)c(-c2ccc3c(-c4nnc[nH]4)ncn3c2)c1F [Compound 72, N-[2,4-difluoro-3-[1-(4H-1,2,4-triazol-3-yl)imidazo[1,5-a]pyridin-6-yl]phenyl]-5-fluoro-2-methylpyridine-3-sulfonamide] | < 50 nM
COc1ncc(F)cc1S(=O)(=O)Nc1ccc(F)c(-c2ccc3c(-n4cnnn4)ncn3c2)c1F [Compound 74, N-[2,4-difluoro-3-[1-(1,2,3,4-tetrazol-1-yl)imidazo[1,5-a]pyridin-6-yl]phenyl]-5-fluoro-2-methoxypyridine-3-sulfonamide] | < 50 nM
COc1ncc(C#N)cc1S(=O)(=O)Nc1ccc(F)c(-c2ccc3c(-n4cnnn4)ncn3c2)c1F [Compound 75, 5-cyano-N-[2,4-difluoro-3-[1-(1,2,3,4-tetrazol-1-yl)imidazo[1,5-a]pyridin-6-yl]phenyl]-2-methoxypyridine-3-sulfonamide] | < 50 nM
Cc1ncc(F)cc1S(=O)(=O)Nc1ccc(F)c(-c2ccc3c(-n4cnnn4)ncn3c2)c1F [Compound 76, N-[2,4-difluoro-3-[1-(1,2,3,4-tetrazol-1-yl)imidazo[1,5-a]pyridin-6-yl]phenyl]-5-fluoro-2-methylpyridine-3-sulfonamide] | < 50 nM
Cc1ncc(Cl)cc1S(=O)(=O)Nc1ccc(F)c(-c2ccc3c(-n4cnnn4)ncn3c2)c1F [Compound 77, 5-chloro-N-[2,4-difluoro-3-[1-(1,2,3,4-tetrazol-1-yl)imidazo[1,5-a]pyridin-6-yl]phenyl]-2-methylpyridine-3-sulfonamide] | < 50 nM
COc1ncc(F)cc1S(=O)(=O)Nc1ccc(F)c(-c2cn3cnc(-c4ncc[nH]4)c3cn2)c1F [Compound 78, N-[2,4-difluoro-3-[1-(1H-imidazol-2-yl)imidazo[1,5-a]pyrazin-6-yl]phenyl]-5-fluoro-2-methoxypyridine-3-sulfonamide] | < 50 nM
COc1ncc(Cl)cc1S(=O)(=O)Nc1ccc(F)c([C@H]2CCc3c(-c4ncc[nH]4)ncn3C2)c1F [Compound 79-1, 5-chloro-N-[2,4-difluoro-3-[(6R)-1-(1H-imidazol-2-yl)-5H,6H,7H,8H-imidazo[1,5-a]pyridin-6-yl]phenyl]-2-methoxypyridine-3-sulfonamide] | < 50 nM
COc1ncc(Cl)cc1S(=O)(=O)Nc1ccc(F)c([C@@H]2CCc3c(-c4ncc[nH]4)ncn3C2)c1F [Compound 79-2, 5-chloro-N-[2,4-difluoro-3-[(6S)-1-(1H-imidazol-2-yl)-5H,6H,7H,8H-imidazo[1,5-a]pyridin-6-yl]phenyl]-2-methoxypyridine-3-sulfonamide] | < 50 nM
Cc1ncc(F)cc1S(=O)(=O)Nc1ccc(F)c([C@H]2CCc3c(-c4ncc[nH]4)ncn3C2)c1F [Compound 80-1, N-[2,4-difluoro-3-[(6R)-1-(1H-imidazol-2-yl)-5H,6H,7H,8H-imidazo[1,5-a]pyridin-6-yl]phenyl]-5-fluoro-2-methylpyridine-3-sulfonamide] | < 50 nM
Cc1ncc(F)cc1S(=O)(=O)Nc1ccc(F)c([C@@H]2CCc3c(-c4ncc[nH]4)ncn3C2)c1F [Compound 80-2, N-[2,4-difluoro-3-[(6S)-1-(1H-imidazol-2-yl)-5H,6H,7H,8H-imidazo[1,5-a]pyridin-6-yl]phenyl]-5-fluoro-2-methylpyridine-3-sulfonamide] | < 50 nM
COc1ncc(F)cc1S(=O)(=O)Nc1ccc(F)c([C@H]2CCc3c(-c4ncc[nH]4)ncn3C2)c1F [Compound 81-1, N-[2,4-difluoro-3-[(6R)-1-(1H-imidazol-2-yl)-5H,6H,7H,8H-imidazo[1,5-a]pyridin-6-yl]phenyl]-5-fluoro-2-methoxypyridine-3-sulfonamide] | < 50 nM
COc1ncc(F)cc1S(=O)(=O)Nc1ccc(F)c([C@@H]2CCc3c(-c4ncc[nH]4)ncn3C2)c1F [Compound 81-2, N-[2,4-difluoro-3-[(6S)-1-(1H-imidazol-2-yl)-5H,6H,7H,8H-imidazo[1,5-a]pyridin-6-yl]phenyl]-5-fluoro-2-methoxypyridine-3-sulfonamide] | < 50 nM
Cc1ncc(Cl)cc1S(=O)(=O)Nc1ccc(F)c(-c2cn3cnc(-c4ncc[nH]4)c3cn2)c1F [Compound 83, 5-chloro-N-[2,4-difluoro-3-[1-(1H-imidazol-2-yl)imidazo[1,5-a]pyrazin-6-yl]phenyl]-2-methylpyridine-3-sulfonamide] | < 50 nM
COc1ncc(Cl)cc1S(=O)(=O)Nc1ccc(F)c(-c2ccc3c(-c4ncc[nH]4)ncn3n2)c1F [Compound 85, 5-chloro-N-[2,4-difluoro-3-[5-(1H-imidazol-2-yl)imidazo[1,5-b]pyridazin-2-yl]phenyl]-2-methoxypyridine-3-sulfonamide] | < 50 nM
COc1ncc(Cl)cc1S(=O)(=O)Nc1ccc(F)c(-c2ccc3c(-c4nnc(C5CC5)[nH]4)ncn3c2)c1F [Compound 87, 5-chloro-N-[3-[1-(5-cyclopropyl-4H-1,2,4-triazol-3-yl)imidazo[1,5-a]pyridin-6-yl]-2,4-difluorophenyl]-2-methoxypyridine-3-sulfonamide] | < 50 nM
COc1ncc(Cl)cc1S(=O)(=O)Nc1ccc(F)c(-c2ccc3c(-c4nnc(C(C)C)[nH]4)ncn3c2)c1F [Compound 88, 5-chloro-N-[2,4-difluoro-3-[1-(5-isopropyl-4H-1,2,4-triazol-3-yl)imidazo[1,5-a]pyridin-6-yl]phenyl]-2-methoxypyridine-3-sulfonamide] | < 50 nM
